Tested on: CamK2a
Test: LabChip (Caliper) kinase assay, CamK2a
Type: biochemical
Protocol: The analysis of kinase activity described here was performed using LabChip (Caliper Life Sciences), specifically the Caliper LC3000 and the EZ Reader II instruments.
The kinase assay used measures the conversion of a fluorescent peptide (substrate) to a phosphorylated product. The reaction mixture, in a microplate well, is introduced by a capillary in a chip where the non-phosphorylated substrate and the phosphorylated product are separated by […]. The intensity of the fluorescent signal over time is related to the reaction progress. The phosphorylated product migrates quicker than the non-phosphorylated substrate and the signals of the two forms of the peptide appear as differentiated peaks. The Caliper determines the peak height and calculates the ratio of product to the peak sum (P/(P+S)). This value is used to compare wells with compounds and wells with controls and thus determine the % of inhibition for the given product.
The followings kinases were used for the enzymatic inhibition studies, between brackets the value of the Michaelis-Menten constant, Km, of the ATP (Adenosine triphosphate) for each kinase, in μM: obtained from Carna Biosciences: MAPKAPK2 (4.6), AurA (3.6), AurB (5), PKCζ (3.8), RSK1 (23.3), PRAK (5), Erk1 (33.4), PKD2 (32.1), CK1d (16.3), CHK1 (33), ABL (61.7), FYN (36), LYNa (17), CHK2 (57.8), MET (79.5), LCK (28.5), SRC (38), GSK3β (7.3), Erk2 (62.1), PKACα (1.7), AKT2 (186.1), INSR (871.8), p38a (396.5), AKT1(48), MSK1 (21.2), PKCβ2 (84.8), ROCK2 (3.3), PIM2 (4.9), AMPK (38.6), KDR (164.8), IRAK4 (196.5), SGK1 (121.8), SYK (33.5); obtained from Invitrogen: CDK2 (57.6), BTK (123), HGK (80); obtained from Upstate: MST2 (36.6), PKGα (16), PAK2 (1.9), IGF1R (320), FGFR1 (171), MARK1 (33), CAMK2δ (22.4), c-TAK1 (66), DYRK1a (18.1), CaMK4 (3.9), FLT3 (350), c-Raf (6.2), P70S6K (95).
The compounds were dissolved in 100% DMSO and were diluted at 25 times the final concentration desired for the assay. In the case of the determination of Cl50, serial dilutions were made to reach eight concentrations and give rise to the inhibition curve. 1 μL of each concentration is transferred, in duplicate to a 384-well microplate. 12 μL of enzymatic buffer is added to each well containing purified kinase (several suppliers as indicated above), 100 mM HEPES, pH 7.5, 1 mM DTT (Calbiochem), 0.002% Brij-35 (Sigma) and also in presence of 10 mM MgCl2 as cofactor, except for INSR and IRAK4 wherein 10 mM MnCl2 is used instead of MgCl2. For the kinases CAMK26 and CAMK4, 1 mM CaCl2 and 6.7 μg/mL of calmodulin are also added. For KDR kinase, 0.05% of the CHAPSO detergent is added. For the c-Raf kinase, 10 mM MnCl2 is added. For PKCβ2 0.02 μg/mL of PS/PMA is added. For PKGα se 10 μM of cGMP (cyclic guanosine monophosphate) is added. The compound and the enzyme are left for 15 minutes preincubation and, then, the following are added to each well: 12 μL of peptide buffer/ATP containing 100 mM HEPES, pH 7.5, 1.5 μM peptide marker with fluorescein (specific for the corresponding kinase), ATP (at concentration KM), and 0.002% Brij-35 to start the reaction. Generally, the reactions are incubated for 1-1.5 h at ambient temperature to obtain an adequate conversion (15-40%) of the peptide to the phosphorylated product. The reactions were ended by the addition of 45 μL of buffer containing 0 mM EDTA. The microplates were read by the LabChip 3000 using a 12-channel LabChip. The P/(P+S) values were obtained as described above and the CI50 curves were generated using XIfit.
For example, the activity of the Dyrk1a kinase is inhibited in 87% by the compound of formula (III) and completely by the compound of formula (XII) when used at a concentration of 10 nM.

Structure (SMILES) | remaining kinase activity (in %) / percentage of inhibition (compound at 10 nM) | remaining kinase activity (in %) / percentage of inhibition (compound at 100 nM)
C[C@@H]1O[C@@H](n2c3ccccc3c3c4c(c5c6ccccc6[nH]c5c32)C(=O)NC4=O)[C@H](O)[C@H](O)[C@H]1O [formula (III), N^13-1′-β-L-rhamnosylarcyriaflavin] | −5% | 3%
C[C@@H]1O[C@@H](n2c3ccccc3c3c4c(c5c6ccccc6[nH]c5c32)C(=O)NC4=O)C[C@H](O)[C@H]1O [formula (IV), N^13-1′-β-L-olivosylarcyriaflavin] | 36% | 29%
C[C@@H]1O[C@@H](n2c3ccccc3c3c4c(c5c6ccccc6[nH]c5c32)C(=O)NC4=O)C[C@@H](O)[C@H]1O [formula (V), N^13-1′-β-L-digitoxosylarcyriaflavin] | 15% | 58%
C[C@H]1O[C@@H](n2c3ccccc3c3c4c(c5c6ccccc6[nH]c5c32)C(=O)NC4=O)C[C@@H](O)[C@@H]1O [formula (VI), N^13-1′-β-D-olivosylarcyriaflavin] | 4% | 46%
C[C@@H]1O[C@@H](n2c3ccccc3c3c4c(c5c6ccccc6[nH]c5c32)CNC4=O)[C@H](O)[C@H](O)[C@H]1O [formula (XII), N^13-1′-β-L-rhamnosyl-k252c] | −6% | 2%
C[C@@H]1O[C@@H](n2c3ccccc3c3c4c(c5c6ccccc6[nH]c5c32)CNC4=O)C[C@H](O)[C@H]1O [formula (XIII), N^13-1′-β-L-olivosyl-k252c] | −6% | 27%
C[C@@H]1O[C@@H](n2c3ccccc3c3c4c(c5c6ccccc6[nH]c5c32)CNC4=O)C[C@@H](O)[C@H]1O [formula (XIV), N^13-1′-β-L-digitoxosyl-k252c] | −7% | 26%
C[C@H]1O[C@@H](n2c3ccccc3c3c4c(c5c6ccccc6[nH]c5c32)CNC4=O)C[C@@H](O)[C@@H]1O [formula (XV), N^13-1′-β-D-olivosyl-k252c] | −6% | 29%

Source: patent publication US8598132B2, “Glycosylated indolocarbazoles, method for obtaining same and uses thereof” (Universidad de Oviedo, priority 2008, dated 2013)
